pIC50: −log10 of the molar value.
Key:
[1] = Inhibition of N-type calcium channel alpha1B/alpha2delta-1/beta1b assessed as inhibition of KCl-induced calcium mobilization by FDSS
[2] = (§1) Metabolic stability in rat liver microsomes assessed as compound remaining after 10 mins; assay type: ADME, Microsome; details: liver microsomes, read-out: Stability
Liver microsomes [3] = assay: (§2) Metabolic stability in human liver microsomes assessed as compound remaining after 10 mins; assay type: ADME, Microsome; details: microsomes, 10 min
[4] = as §2; assay type: ADME, Microsome; details: liver microsomes, read-out: Stability
Rattus norvegicus [5] = species: Rattus norvegicus; assay: Ex vivo inhibition of rat N-type calcium channel assessed as inhibition of KCl-stimulated CGRP release at 1 uM by ELISA in presence of conotoxin GVIA; assay type: functional
Rattus norvegicus [6] = assay: Antiallodynic activity in Sprague-Dawley rat chronic constriction injury-induced neuropathic pain model assessed as attenuation of CCl-induced cold allodynia at 30 mg/kg, ip measured at 1 to 4 hrs; assay type: functional; details: route intraperitoneal
Plasma = assay: Plasma concentration in Sprague-Dawley rat at 30 mg/kg, ip; assay type: ADME, organism-based; parameters: dose 30 mg/kg, route intraperitoneal; details: in vivo
[7] = Oral bioavailability in Sprague-Dawley rat at 10 mg/kg; assay type: ADME, organism-based; details: in vivo
[8] = Inhibition of N-type calcium channel alpha1B/alpha2delta-1/beta1b by patch clamp analysis
Rattus norvegicus [9] = assay: Antiinflammatory activity in ip dosed Sprague-Dawley rat assessed as reversal of carrageenan-induced thermal hypersensitivity administered 1 hr before carrageenan challenge; assay type: functional, organism-based
[10] = Clearance in Sprague-Dawley rat at 2 mg/kg, iv; assay type: ADME, organism-based; parameters: dose 2 mg/kg, route intravenous; details: in vivo
[11] = Half life in Sprague-Dawley rat at 2 mg/kg, iv; assay type: ADME, organism-based; parameters: dose 2 mg/kg, route intravenous; details: in vivo
[12] = Tmax in Sprague-Dawley rat at 10 mg/kg, po; assay type: ADME, organism-based; parameters: dose 10 mg/kg, route oral; details: in vivo
[13] = Cmax in Sprague-Dawley rat at 10 mg/kg, po; assay type: ADME, organism-based; parameters: dose 10 mg/kg, route oral; details: in vivo
Rattus norvegicus [14] = assay: Antiinflammatory activity in Sprague-Dawley rat assessed as reversal of carrageenan-induced thermal hypersensitivity at 30 mg/kg, ip administered 1 hr before carrageenan challenge relative to control; assay type: functional; details: route intraperitoneal
[15] = Inhibition of L-type calcium channel at 5 uM
Liver microsomes [16] = assay: as §1; assay type: ADME, Microsome; details: microsomes, 10 min

CCS(=O)(=O)N1CCC(c2cc(-c3ccc(Cl)cc3)n(-c3ccccc3OC)n2)CC1
pIC50 [1]: 7.46
remaining at 10 min [2]: 22%
Stability (Liver microsomes [3]): Unstable

COc1ccccc1-n1nc(C2CCN(S(C)(=O)=O)CC2)cc1C1CCC(C)(C)CC1
pIC50 [1]: 6.85

OCCCc1cc(-c2ccc(Cl)cc2)n(-c2ccccc2)n1
pIC50 [1]: 5.92

COc1ccccc1-n1nc(C2CCN(S(C)(=O)=O)CC2)cc1-c1ccc(Cl)s1
pIC50 [1]: 7.03

COc1ccccc1-n1nc(C2CCN(S(C)(=O)=O)CC2)cc1-c1ccc(Cl)c(C(F)(F)F)c1
pIC50 [1]: 7.00

CS(=O)(=O)N1CCC(c2cc(-c3ccc(Cl)cc3)n(-c3ccccc3N)n2)CC1
pIC50 [1]: < 6.52

CC(C)Oc1ccccc1-n1nc(C2CCN(S(C)(=O)=O)CC2)cc1-c1ccc(Cl)cc1
pIC50 [1]: 8.30
remaining at 10 min [2]: 5%
remaining at 10 min [4]: 18%

COc1ccccc1-n1nc(C2CCN(S(C)(=O)=O)CC2)cc1-c1ccc(Cl)cc1
inhibition (INH) (Rattus norvegicus [5]): 91%
inhibition in vivo at 30 mg/kg (Rattus norvegicus [6]): 41%
concentration (Plasma): 8.32 µM
bioavailability [7]: 42.5%
pIC50 [8]: 6.70
Activity (Rattus norvegicus [9]): Dose-dependent effect
pIC50 [1]: 7.57
clearance [10]: 26 mL/min/kg
half-life [11]: 1.5 h
Tmax [12]: 0.9 h
Cmax [13]: 1.5 µM
remaining at 10 min [2]: 45%
Activity (Rattus norvegicus [14]): 82%
inhibition [15]: 52%
remaining at 10 min [4]: 86%

COc1ccccc1-n1nc(C2CCN(C(C)=O)CC2)cc1-c1ccc(Cl)cc1
pIC50 [1]: 7.77
remaining at 10 min [2]: 7%
remaining at 10 min [4]: 59%

CN(C)c1ccccc1-n1nc(C2CCN(S(C)(=O)=O)CC2)cc1-c1ccc(Cl)cc1
pIC50 [1]: 7.89

COc1ccccc1-n1nc(C2CCN(S(C)(=O)=O)CC2)cc1-c1ccc(Cl)cc1Cl
pIC50 [1]: 7.82

COc1ccccc1-n1nc(C2CCN(S(C)(=O)=O)CC2)cc1-c1ccc(N(C)C)cc1
pIC50 [1]: 7.21

COc1ccccc1-n1nc(CCCO)cc1-c1ccc(Cl)cc1
pIC50 [1]: 7.01
remaining at 10 min [2]: 14%

COc1ccccc1-n1nc(C2CCN(S(=O)(=O)C(C)C)CC2)cc1-c1ccc(Cl)cc1
pIC50 [8]: 7.10
pIC50 [1]: 7.74
remaining at 10 min [2]: 19%
remaining at 10 min [4]: 100%

COc1ccccc1-n1nc(C2CCN(S(C)(=O)=O)CC2)cc1-c1ccc(F)cc1
pIC50 [1]: 7.01

COc1ccccc1-n1nc(C2CCN(S(=O)(=O)C(F)(F)F)CC2)cc1-c1ccc(Cl)cc1
pIC50 [1]: 7.80
remaining at 10 min [2]: 100%
remaining at 10 min [4]: 98%

COc1ccccc1-n1nc(C2CCN(S(=O)(=O)CC(F)(F)F)CC2)cc1-c1ccc(Cl)cc1
pIC50 [1]: 7.59
remaining at 10 min [2]: 33%
remaining at 10 min [4]: 100%

COc1ccccc1-n1nc(C2CCN(S(C)(=O)=O)CC2)cc1C1=CCC(C)(C)CC1
pIC50 [1]: 7.31

COc1ccccc1-n1nc(C2CCN(S(C)(=O)=O)CC2)cc1-c1ccc(Cl)c(C#N)c1
pIC50 [1]: 7.02

COc1ccccc1-n1nc(C2CCN(S(C)(=O)=O)CC2)cc1-c1ccc(C(C)(C)C)cc1
pIC50 [1]: 7.54

COc1ccccc1-n1nc(C2CCN(S(C)(=O)=O)CC2)cc1-c1ccc2c(ccn2C)c1
pIC50 [1]: 7.17

CNc1ccc(-c2cc(C3CCN(S(C)(=O)=O)CC3)nn2-c2ccccc2OC)cc1
pIC50 [1]: 6.70

COc1ccccc1-n1nc(C2CCN(S(C)(=O)=O)CC2)cc1-c1ccc(OC(C)C)cc1
pIC50 [1]: 6.60

COc1ccccc1-n1nc(C2CCN(S(=O)(=O)N(C)C)CC2)cc1-c1ccc(Cl)cc1
pIC50 [1]: 7.96
Stability (Liver microsomes [16]): Unstable
Stability (Liver microsomes [3]): Unstable

COc1ccccc1-n1nc(C2CCN(S(C)(=O)=O)CC2)cc1-c1cc2ccccc2o1
pIC50 [1]: 6.40

COc1c(Cl)cccc1-n1nc(C2CCN(S(C)(=O)=O)CC2)cc1-c1ccc(Cl)cc1
pIC50 [1]: 6.77

COc1ccccc1-n1nc(C2CCN(S(C)(=O)=O)CC2)cc1-c1ccc(C#N)cc1
pIC50 [1]: 6.77

— ChEMBL document CHEMBL2029231, “A novel series of pyrazolylpiperidine N-type calcium channel blockers” (Bioorg Med Chem Lett, 2012)
